Reference: patent US20210395327A1, “Growth Hormone-Releasing Hormone Antagonists and Uses Thereof” (United States Government As Represented By The Department …, priority 2019, published 2021)
Non-standard residues stand in square brackets, D forms with d. Residues, ends and D or L forms follow the SMILES beside them. *: point of attachment. Phenylacetyl(2,3,4,5,6-F5) = O=C(Cc1c(F)c(F)c(F)c(F)c1F)*; Phe(F5) = N[C@@H](Cc1c(F)c(F)c(F)c(F)c1F)C(=O)O; Phe(4-Cl) = N[C@@H](Cc1ccc(Cl)cc1)C(=O)O; hArg = N=C(N)NCCCC[C@H](N)C(=O)O; 12Ado = NCCCCCCCCCCCC(=O)O; Nle = CCCC[C@H](N)C(=O)O; Abu = CC[C@H](N)C(=O)O

Columns and labels:
[1] = system: SK-OV-3 ovarian cancer cells; experiment: In vitro cell viability, SK-OV-3; format: cell-based, human; settings: Table 3B; * at 2 μM for 72 H; MIA-602 = 1
Description: (§1) The inhibitory effects of the various synthesized GHRH antagonists were tested in cell proliferation assays in various human cancer cell lines including stomach cancer (KATOIII, N87), colon cancer (HT-29), urothelial cancer (J82, RT4), pancreatic cancer (PANC-1, CFPAC-1), prostatic cancer (PC3), breast cancer (MX-1, HCC1806), ovarian cancer (SK-OV-3, OVCAR-3) and lung cancer (HCC827, H460).
(§2) Cell culture. Human cancer cell lines including pancreatic (PANC-1 and CFPAC-1), lung (HCC827 and H460), stomach (NCI-N87 and KATOIII), urothelial (J82, RT4), prostatic (PC3), breast (MX-1 and HCC 1806), colorectal (HT-29), and ovarian (SK-OV-3 and OVCAR-3) were obtained from the American Type Culture Collection (ATCC) and cultured at 37° C. in a humidified 95% air/5% CO2 atmosphere in the medium recommended by ATCC.
(§3) In vitro cell viability. Cell viability was analyzed as follows: cancer cells including pancreatic (PANC-1 and CFPAC-1), lung (HCC827 and H460), stomach (NCI-N87 and KATOIII), urothelial (J82, RT4), prostatic (PC3) and breast (MX-1 and HCC 1806), colorectal (HT-29) and ovarian (SK-OV-3 and OVCAR-3) were grown on 96 well plates to ˜60% confluence, the cells were starved for 24 h in culture medium containing 0.5% FBS. Cells were then treated with GHRH antagonists MIA602 AVR compounds at concentrations of 1, 2.5 or 5 μM, or vehicle (0.1% DMSO) in quintuplicates for 72 hours. The medium was replaced every 48 hours. Cell viability was measured using CellTiter 96 aqueous one solution kit (Promega). Inhibitory effects of tested AVR compounds in comparison to that of MIA602 are presented as inhibitory potency.
(§4) Inhibitory effects of selected AVR compounds in comparison to that of MIA602 are presented as inhibitory potency (e.g., percentage of inhibition). […] The cell lines tested including lung cancer HCC827 (FIG. 2A), pancreatic cancer CFPAC-1 (FIG. 2B), stomach cancer N87 (FIG. 2C), colon cancer HT-29 (FIG. 2D), breast cancers MX-1 and HCC1806 (FIGS. 2 E, F). […]

[2] = system: OVCAR-3 ovarian cancer cells; experiment: In vitro cell viability, OVCAR-3; format: cell-based, human; settings: Table 3B; * at 2 μM for 72 H; MIA-602 = 1
Description: as §1, §2, §3, §4

[3] = system: pancreatic cancer PANC-1 xenograft; experiment: Xenograft tumor growth in nude mice, PANC-1; format: in vivo; settings: Table 4A, Pancreatic Ca PANC-1, 7 weeks; for % Inhibition: vs control
Description: (§5) The peptides' activity was compared with GHRH antagonist MIA-602. All statistical analyzses were performed from comparing GHRA antagonists to non-treated tumor (control).
(§6) Peptides and chemicals. GHRH antagonists MIA-602 and AVR-GHRH antagonists (see Table 2 above) were synthesized by solid phase methods and purified by HPLC. The peptides were dissolved in DMSO and further diluted in 10% 1,2-propanediol. The final concentration of peptides was 50 µg/ml in 10% 1,2-propanediol containing 0.1% of DMSO.
as §2, with “(NCI-N87), prostate” for “(NCI-N87 and KATOIII), urothelial (J82, RT4), prostatic”, “brest” for “breast”, “HCC-1806),” for “HCC 1806),”
(§7) Xenograft models of human cancers in nude mice. Female athymic (NCr nu/nu) nude mice, 5- to 6-weeks-old, obtained from the Envigo labs (Tampa, Fla.), were housed in laminar airflow cabinets under pathogen-free conditions with a 12-h light/12-h dark schedule, and were fed autoclaved standard chow and water. To generate mice with xenografted tumors, tumor xenografts were initiated by subcutaneous (s.c.) injection of 107 human cancer cells into female nude mice. After about 4 weeks the resulting tumors were dissected and collected after removing necrosis tissues. The tumors were then cut into particles with size of 3 mm3 and transplanted s.c. by trocar needle into experimental animals. When tumors grew to the size of 50-60 mm3 (by volume), mice were randomized into groups and treated daily for 4-8 weeks by subcutaneous administration of 5 μg of GHRH antagonists MIA-602 or AVR-compounds (2-10 μg as indicated), or vehicle solutions (0.1% DMSO in 10% 1,2-propanediol) respectively. Tumor sizes were measured weekly.
(§8) Statistical analysis. One-way ANOVA followed by Bonferroni comparison were performed. Data are expressed as Mean±SEM. To determine statistical significance between animal groups, two-tailed Student's t-test was conducted. Differences were considered significant when p<0.05.
(§9) Results. […] FIG. 1A-N represents in vivo inhibition of tumor growth during the treatment with GHRH antagonist MIA-602 and selected AVR antagonists in nude mice xenografted with various human tumors including pancreatic cancer PANC-1 (FIG. 1A) and CFPAC-1 (FIG. 1I); lung cancer HCC827 (FIGS. 1B, C) and H460 (FIG. 1H); stomach cancer N87 (FIGS. 1D-F); colon cancer HT-29 (FIG. 1G); breast cancer MX-1 and HCC-1806 (FIGS. 1J, K); ovarian cancer SK-OV-3 and OVACAR-3 (FIGS. 1 L, M) and prostate cancer PC3 (FIG. 1N). See also Table 5.

[4] = system: breast cancer MX-1 xenograft; experiment: Xenograft tumor growth in nude mice, MX-1; format: in vivo; settings: Table 4J, Breast Ca MX-1, 4 weeks, 5 μg/day s.c.; for % Inhibition: vs control
Description: as §5, §6
as §2, with “(NCI-N87), prostate” for “(NCI-N87 and KATOIII), urothelial (J82, RT4), prostatic”, “brest” for “breast”, “HCC-1806),” for “HCC 1806),”
as §7, §8, §9

[5] = system: breast cancer HCC-1806 xenograft; experiment: Xenograft tumor growth in nude mice, HCC-1806; format: in vivo; settings: Table 4K, Breast Ca HCC-1806, 5 weeks, 5 μg/day s.c.
Description: as §5, §6
as §2, with “(NCI-N87), prostate” for “(NCI-N87 and KATOIII), urothelial (J82, RT4), prostatic”, “brest” for “breast”, “HCC-1806),” for “HCC 1806),”
as §7, §8, §9

[6] = system: ovarian cancer OVCAR-3 xenograft; experiment: Xenograft tumor growth in nude mice, OVCAR-3; format: in vivo; settings: Table 4M, Ovarian Ca OVCAR-3, 9 weeks; for % Inhibition: vs control
Description: as §5, §6
as §2, with “(NCI-N87), prostate” for “(NCI-N87 and KATOIII), urothelial (J82, RT4), prostatic”, “brest” for “breast”, “HCC-1806),” for “HCC 1806),”
as §7, §8, §9

Row | Compound | In vitro relative inhibitory potency in comparison to MIA-602, SKOV-3 [1] | In vitro relative inhibitory potency in comparison to MIA-602, OVCAR-3 [2] | Tumor Growth % ([3]; 2.5 μg/day s.c.) [%] | % Inhibition ([3]; 2.5 μg/day s.c.) [%] | Tumor Growth % ([3]; 5 μg/day s.c.) [%] | % Inhibition ([3]; 5 μg/day s.c.) [%] | Tumor Growth % [4] [%] | % Inhibition [4] [%] | Tumor Growth % [5] [%] | % Inhibition ([5]; vs control) [%] | Tumor Size (mm3) ([6]; 2.5 μg/day s.c.) | % Inhibition ([6]; 2.5 μg/day s.c.) [%] | Tumor Size (mm3) ([6]; 5 μg/day s.c.) | % Inhibition ([6]; 5 μg/day s.c.) [%] | Tumor Growth % ([3]; 10 μg/day s.c.) [%] | % Inhibition ([3]; 10 μg/day s.c.) [%]
1 | CCCC[C@H](NC(=O)[C@@H](NC(=O)[C@H](CC(=O)O)NC(=O)[C@H](CCC(N)=O)NC(=O)[C@H](CC(C)C)NC(=O)[C@H](CC(C)C)NC(=O)[C@H](CCCCN)NC(=O)[C@H](CCCNC(=N)N)NC(=O)[C@H](C)NC(=O)[C@H](CO)NC(=O)[C@H](CC(C)C)NC(=O)[C@H](CCC(N)=O)NC(=O)[C@H](CC)NC(=O)[C@H](CC(C)C)NC(=O)[C@@H](NC(=O)[C@H](CCCCN)NC(=O)[C@H](CCCNC(=N)N)NC(=O)[C@H](Cc1ccc(OC)cc1)NC(=O)[C@H](CCCCNC(=N)N)NC(=O)[C@H](C)NC(=O)[C@@H](NC(=O)[C@H](Cc1c(F)c(F)c(F)c(F)c1F)NC(=O)[C@@H](NC(=O)[C@H](C)NC(=O)[C@H](CC(=O)O)NC(=O)[C@@H](CCCNC(=N)N)NC(=O)[C@H](Cc1ccc(O)cc1)NC(=O)CCCCCCCCCCCNC(=O)Cc1c(F)c(F)c(F)c(F)c1F)[C@@H](C)CC)[C@@H](C)O)C(C)C)[C@@H](C)CC)C(=O)N[C@H](CCCNC(=N)N)C(=O)N[C@@H](CCCCNC(=N)N)C(=O)NCCCCCCCCCCCC(N)=O [AVR-352, 5FPhAC-Ada-Tyr-DArg-Asp-Ala-Ile-5FPhe-Thr-Ala-Har-Tyr(Me)-Arg-Lys-Val-Leu-Abu-Gln-Leu-Ser-Ala-Arg-Lys-Leu-Leu-Gln-Asp-Ile-Nle-DArg-Har-Ada-NH2] ({Phenylacetyl(2,3,4,5,6-F5)-12Ado}-Y[dR]DAI[Phe(F5)]TA[hArg]Y(Me)RKVL[Abu]QLSARKLLQDI[Nle][dR][hArg][12Ado]-NH2) | 1.15* | 1.68* | 2073.0 | 22.4 | 1456.9 | 45.4 | 673.2 | 39.5 | 522.7 | 56.2 | 307.7 | 35.9 | 199.9 | 58.4 | – | –
2 | CCCC[C@H](NC(=O)[C@@H](NC(=O)[C@H](CC(=O)O)NC(=O)[C@H](CCC(N)=O)NC(=O)[C@H](CC(C)C)NC(=O)[C@H](CC(C)C)NC(=O)[C@H](CCCCN)NC(=O)[C@H](CCCNC(=N)N)NC(=O)[C@H](C)NC(=O)[C@H](CO)NC(=O)[C@H](CC(C)C)NC(=O)[C@H](CCC(N)=O)NC(=O)[C@H](CC)NC(=O)[C@H](CC(C)C)NC(=O)[C@@H](NC(=O)[C@H](CCCCN)NC(=O)[C@H](CCCNC(=N)N)NC(=O)[C@H](Cc1c(F)c(F)c(F)c(F)c1F)NC(=O)[C@H](CCCCNC(=N)N)NC(=O)[C@H](C)NC(=O)[C@@H](NC(=O)[C@H](Cc1ccc(Cl)cc1)NC(=O)[C@@H](NC(=O)[C@H](C)NC(=O)[C@H](CC(=O)O)NC(=O)[C@@H](CCCNC(=N)N)NC(=O)[C@H](Cc1ccc(O)cc1)NC(=O)CCCCCCCCCCCNC(=O)Cc1c(F)c(F)c(F)c(F)c1F)[C@@H](C)CC)[C@@H](C)O)C(C)C)[C@@H](C)CC)C(=O)N[C@H](CCCNC(=N)N)C(=O)N[C@@H](CCCCNC(=N)N)C(=O)NCCCCCCCCCCCC(N)=O [AVR-353, 5FPhAC-Ada-Tyr-DArg-Asp-Ala-Ile-Cpa-Thr-Ala-Har-5FPhe-Arg-Lys-Val-Leu-Abu-Gln-Leu-Ser-Ala-Arg-Lys-Leu-Leu-Gln-Asp-Ile-Nle-DArg-Har-Ada-NH2] ({Phenylacetyl(2,3,4,5,6-F5)-12Ado}-Y[dR]DAI[Phe(4-Cl)]TA[hArg][Phe(F5)]RKVL[Abu]QLSARKLLQDI[Nle][dR][hArg][12Ado]-NH2) | 1.04* | 1.55* | 1482.8 | 44.5 | 1257.3 | 52.9 | 774.2 | 30.5 | – | – | 357.0 | 25.7 | 255.2 | 46.9 | 1005.1 | 62.4
